Experimental data published in US8093274B2, “Inhibitors of protein prenyltransferases” (The Regents of the University of California, priority 2006, dated 2012).

What was measured:
[1] = target: GGTase I (substrate RhoA) (Homo sapiens, UniProt P49354+P53609); assay: GGTase I filter-binding assay with RhoA as substrate; assay type: biochemical
Method: The pilot library was screened for inhibitors of protein geranylgeranyltransferase type I. Protein prenyltransferase assays were carried out by using filter binding. Two different substrates, RhoA and K-Ras4B, were used for the assay. RhoA ends with the CaaL motif and is an exclusive substrate for GGTase I, while K-Ras4B ends with the CaaX motif and is modified by both GGTase I and FTase.
The % activity of GGTase I was determined as follows: a working solution that contained each compound in DMSO at the concentration of 1 mM was prepared. The working solution was added to GGTase I reaction mixture so that the final concentration of the compound is 50 μM. GGTase I activity was assayed by incubating [^3H]GGPP with K-Ras4B or RhoA protein in the presence of GGTase I and examining radioactivity incorporated into the substrate protein by spotting onto a filter paper. After washing with TCA, ethanol and acetone, the radioactivity retained on the filter was determined by the use of a scintillation counter. GGTase I activity in the presence of DMSO was taken as a 100% value and the activity in the presence of the compound was shown as percent activity compared with the 100% value. […] For 6-aryl-4-mercapto-N-sulfonyl-piperidine-3-carboxylic acid 11 the 4-mercapto substituent appeared critical to endowing GGTase inhibitory activity. […] 4-Chlorobenzylthio substituent was the next best; 12 compounds out of 21 containing the 4-chlorobenzylthio moiety were active. 4-Benzylthio substituent was also good; 7 piperidines out of 21 bearing 4-benzylthio group were active. […] 19 imines (C15>C12=C41>C40>C01=C11>C05=C10=C30=C35=C37=C38>C02, C03, C04, C06, C39=C43) out of 21 appeared in the GGTIs. […] This corresponds to 47 6-aryl-4-mercapto-N-sulfonyl-piperidine-3-carboxylic acids out of 357 compounds.
A collection of 138 heterocycles was screened for their ability to inhibit the activity of human GGTase-I to geranylgeranylate K-Ras4B or RhoA. Purified GGTase-1 was incubated with its substrate protein K-Ras4B or RhoA, [^3H]GGPP, and the 138 compounds. After 30 min, the degree of incorporation of tritiated geranylgeranyl groups was measured using a scintillation counter.
(§1) The GGTase-I assay was carried out using RhoA as a substrate protein, GGTase-I (JENA Bioscience) and [3H]geranylgeranyl pyrophosphate. Incubation was for 30 min at 37 C. GGTase-H (or RabGGTase) assay was carried out using YPT1 as a substrate protein, GGTase-H (Calbiochem, San Diego, Calif.) plus REP1 (Calbiochem) and [3H]geranylgeranyl pyrophosphate. Incubation was for 30 min at 37 C. FIGS. 20D-20F show the three dimensional structure of GGTase I (D), FTsse (E) and GGTase II (F) which can be obtained from X-ray diffraction studies of protein crystals.

[2] = target: T1, protein farnesyltransferase (FTase) (Rattus norvegicus, UniProt Q02293+Q04631); assay: Protein farnesyltransferase assay with K-Ras4B and [3H]FPP; assay type: biochemical
T1 construct: purchased JENA Bioscience
Text: To further characterize the pilot library, inhibitors of protein farnesyltransferase were identified. This was accomplished by using K-Ras4B as a substrate protein, tritiated farnesylpyrophosphate ([^3H]FPP) and protein farnesyltransferase. See Finegold, A. A., Johnson, D. I., Farnsworth, C. C., Gelb, M. H., Judd, S. R., Glomset, J. A. and Tamanoi, F. (1991) Protein geranylgeranyltransferase of Saccharomyces cerevisiae is specific for Cys-Xaa-Xaa-Leu motif and requires the CDC43 gene product but not the DPRI gene product. Proc. Natl. Acad. Sci. USA 88, 4448-4452. […] On the other hand, the structure of the compounds P1-F11, P2-B7 and P2-E9 resemble those of GGTIs. The FTI P1-F11 resembles the GGTI P1-F10, while the FTI P2-B7 resembles the GGTI P2-C10. The FTI P2-E9 is similar to the GGTI P2-G3. Similarity of some GGTI and FTI compounds may point to common structural features between the two closely related enzymes. As described before, FTase and GGTase I have similar three-dimensional structures and a shared alpha subunit. On the other hand, FTase specific inhibitors may recognize a region(s) that is different between the two enzymes.
Varying concentrations of the two compounds were added to each enzyme reaction. The FTase (protein farnesyltransferase) assay was carried out using K-Ras4B as a substrate protein, FTase (JENA Bioscience, San Diego, Calif.) and […] pyrophosphate. Incubation was for 30 min at 37 C.

[3] = tested on: GGTase-I; assay: GGTase-I inhibition kinetics, double reciprocal plots; assay type: biochemical; conditions: varying GGPP with fixed RhoA
Method: as §1
The graphs in FIG. 21 show double reciprocal plots obtained from substrate velocity curves for the inhibition of GGTase-I by P3-E5 (left) and P5-H6 (right). The upper figures show varying GGPP concentrations with a fixed RhoA protein concentration were used. The lower figures show varying RhoA protein concentrations with a fixed GGPP concentration was used. The following scale was used to prepare the graphs: Y-axis: 1/v, fmol/min. X-axis: 1/s, mM.

[4] = tested on: geranylgeranylated Rheb (Rheb-CSVL) in HEK 293 cells; assay: Geranylgeranylation of Rheb-CVSL in HEK 293 cells, mobility shift on Western blot; assay type: cell-based, human; conditions: for inhibition of geranylgeranylation of Myc-HA tagged-Rheb-CVSL in cells: HEK 293 cells treated for 48 hours
Text: Finally, we investigated in vivo effects of compounds 22 (also known as UC-22) and 23 (also known as UC-23). Human embryonic kidney (HEK) 293 cells were transfected with the Rheb-CSVL construct that expresses the geranylgeranylated form of the Rheb protein. Inhibition of the geranylgeranylation of this protein can be detected from a shift in its mobility on SDS polyacrylamide gel; the unprocessed form appears as a slowly migrating band.
Human embryonic kidney (HEK) 293 cells expressing Myc-HA tagged-Rheb-CVSL (upper) or Myc-HA tagged-Rheb-WT (lower) were treated with P3-E5 for 48 hours and then lysed. The cell lysates were run on a SDS polyacrylamide gel and immunoblotted using anti-Myc or anti-Actin antibody. The descriptors P and U indicate processed and unprocessed Rheb, respectively.
Human embryonic kidney (HEK) 293 cells expressing Myc-HA tagged-Rheb-CVSL (upper) or Myc-HA tagged-Rheb-WT (lower) were treated with mP5-H6a (also referred to as mP5-H6), or GGTI-298 for 48 hours and then lysed. Lysates were run on a SDS polyacrylamide gel and immunoblotted with anti-Myc or anti-Actin antibody.

[5] = tested on: K562 cells; assay: Proliferation of K562 cells, cell counting kit-8; assay type: cell-based, human; conditions: 72 hours; relative to DMSO control
Method: (§2) K562 cells are a cell line of human erythroleukemia cells. The K562 cells were treated with P3-E5, P5-H6 or GGTI-298 (a known GGTI compound illustrated in FIG. 27) for 72 hours and then cell number was counted using cell counting kit-8 (Dojindo, Gaithersburg, Md.). Cell viability relative to the DMSO control and the known GGTI compound is plotted in FIG. 23.

[6] = tested on: K562 cells; assay: Cell cycle profile of K562 cells by flow cytometry; assay type: cell-based, human; conditions: 48 hours; 0 to 10 mM
Method: K562 cells were treated with indicated concentrations (mM) of P3-E5 (ranging from […]) or GGTI-298 (ranging from […]) for 48 hours. Cell cycle profiles were monitored by flow cytometry. Percentages of cells in each phase of the cell cycle are indicated by different colors. Red: G0/G1 phase. Black: S phase. Gray: G2/M phase.

[7] = tested on: Panc-1 cells; assay: Proliferation of Panc-1 cells; assay type: cell-based, human
Method: as §2
(§3) Panc-1 cells (Pancreatic cancer cell line) and Jurkat cells (T-cell leukemia) were treated with 12.5 μM of P5-H6 or 12.5 μM of mP5-H6a for 72 hours. The cell number was counted as described in Example 5.

[8] = tested on: Jurkat cells; assay: Proliferation of Jurkat cells; assay type: cell-based, human
Method: as §2, §3

[9] = tested on: BT474; assay: Proliferation of BT474 cells; assay type: cell-based, human
[10] = tested on: MDA-MB231; assay: Proliferation of MDA-MB231 cells; assay type: cell-based, human
[11] = tested on: MiaPaCa2; assay: Proliferation of MiaPaCa2 cells; assay type: cell-based, human

## Cc1ccccc1S(=O)(=O)N1[C@@H](c2cccc(Cl)c2)C(C(=O)O)=CC[C@H]1c1ccc(Cl)cc1 (relative stereo) [P3-E5]
[1]; FIG. 15, read-out: IC50 for the inhibition of GGTase I using RhoA as a substrate
  IC50: 7 µM
[1]; compared with FTase and GGTase-II, varying concentrations, FIGS. 20A-20C
  specificity of GGTase I inhibition: specifically inhibit GGTase I
[2]; FIG. 16, concentration increased to 100 μM
  inhibition of FTase activity: no inhibition of FTase activity was observed
[2]; at concentrations at which they inhibited GGTase-I by more than 90%
  inhibition of FTase: did not inhibit FTase
[3]
  mode of inhibition of GGTase-I: compete with a substrate protein but do not compete with GGPP
[4]
  inhibition of geranylgeranylation of Myc-HA tagged-Rheb-CVSL in cells: inhibits geranylgeranylation in cells
[4]; HEK 293 cells, FIG. 33
  inhibition of geranylgeranylation of Rheb-CSVL within the cell: inhibit geranylgeranylation within the cell
[5]
  inhibition of proliferation of K562 cells: inhibit proliferation of K562 cells
[6]
  cell cycle effect in K562 cells: induces G1 arrest in K562 cells

## COC(=O)[C@H](Cc1ccccc1)NCC(=O)OCC1=C[C@@H](C(C)(C)C)N(S(=O)(=O)c2ccccc2C)C1c1ccc(Cl)cc1 (some centres unmarked) [mP5-H6]
[4]
  inhibition of geranylgeranylation of Myc-HA tagged-Rheb-CVSL in cells: inhibits geranylgeranylation in vivo
[7]
  inhibition of proliferation of pancreatic cancer cell line Panc-I: inhibits proliferation
[7]; 12.5 μM, 72 hours
  inhibition of growth of Panc-1 cells relative to P5-H6: inhibits the growth of Panc-1 cells and Jurkat cells better than P5-H6
[8]
  inhibition of proliferation of leukemic cell line Jurkat: inhibits proliferation
[8]; 12.5 μM, 72 hours
  inhibition of growth of Jurkat cells relative to P5-H6: inhibits the growth of Panc-1 cells and Jurkat cells better than P5-H6
[9]
  inhibition of proliferation of breast cancer cell line BT474: inhibits proliferation
[10]
  inhibition of proliferation of breast cancer cell line MDA-MB231: inhibits proliferation
[11]
  inhibition of proliferation of pancreatic cancer cell line MiaPaCa2: inhibits proliferation
